Experimental data as given in US20120283293A1, “Methods of neuroprotection involving Prostaglandin E2 EP4 (PGE2 EP4) receptor activation” (The Board of Trustees of the Leland Stanford Junior …, priority 2011, published 2012).

System: IKK phosphorylation in BV-2 cells
Test: phospho-IKK quantitative Western in LPS-stimulated BV-2 cells
Format: cell-based, murine
Conditions: LPS 100 ng/ml, AE1-329 100 nM
Description: Nuclear and cytoplasmic fractions of BV-2 cells were prepared at several time points after treatment (0-120 minutes) using the nuclear extract kit from Active Motif (Carlsbad, Calif.). Briefly, cells were washed, collected in ice-cold PBS in the presence of phosphatase inhibitors, and centrifuged at 300×g for 5 min at 4° C. Cell pellets were resuspended in hypotonic buffer, treated with detergent, and centrifuged at 14,000×g for 30 sec at 4° C. After collection of the cytoplasmic fraction, nuclei were solubilized for 30 min in lysis buffer containing protease inhibitors. Lysates were centrifuged at 14,000×g for 30 min at 4° C. and supernatants were collected for NF-κB studies. To prepare whole cell lysates for phospho-Akt and phospho-IKK studies, cells were washed in ice-cold PBS and lysed in 20 mM Tris-HCl, pH 7.5, 150 mM NaCl, 1 mM Na2EDTA, 1 mM EGTA, 1% Triton, 2.5 mM sodium pyrophosphate, 1 mM β-glycerophosphate, 1 mM orthovanadate, 1 μg/ml leupeptin and 1 mM PMSF. […] All protein concentrations were determined using the Bradford protein assay.
Western blot analysis. […] Immunoreactivity was detected using either sheep anti-rabbit or sheep anti-mouse HRP-conjugated secondary antibody (Amersham Biosciences, Arlington Heights, Ill.), followed by enhanced chemiluminescence (Pierce). Autoradiographic signals were quantified using NIH Image. […]

COCc1ccccc1CC[C@H](O)/C=C/[C@H]1[C@H](O)CC(=O)[C@@H]1SCCCSCC(=O)O [AE1-329]
LPS-induced phosphorylation of IKK: attenuated
